By IC50 is commonly meant the concentration that gives 50% inhibition. In general, EC50 refers to the concentration at which the effect is half-maximal. By Kd is commonly meant the constant that tells how readily two partners part at equilibrium. Lower therefore signals tighter binding.

The text below walks through data of patent US11518764B2, “Substituted heteroaryls as inhibitors of the BCL6 BTB domain protein-protein interaction” (Ontario Institute for Cancer Research (OICR), priority 2018, dated 2022).

One test relates to Karpas422 cells. Nature of the test: Tumor cell growth inhibition assay. It is filed as cell-based. The following applies: Homo sapiens, KARPAS-422, 144 h, read-out: Tumor Growth Inhibition in Karpas-422 (IC50, uM), Karpas422 cells, six days, ATPlite. In outline:
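Growth inhibition was measured by ATPlite luminescence after six days of culture at 37° C. in 5% CO2. Karpas422 cells were seeded at 2,000 per well in Alpha-MEM plus 10% FBS. Compounds were given as a 10-point concentration series with a highest dose of 5 uM.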

Test [1] relates to BCL6 reporter construct (3xBCL6-TK-Luc) in SuDHL4 cells. In words: Cell-based luciferase assay. The following applies: Homo sapiens, SU-DHL-4, 48 h, read-out: Luciferase-Assay EC50, uM), SuDHL4-3xBCL6-TK-Luc cells, two days, high dose 10 uM. The procedure, abridged:
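SuDHL4 cells stably carrying a 3×BCL6-site TK-promoter firefly luciferase reporter, seeded at 15,000 cells/well, were dosed over a 10-point range (top 10 uM) and grown two days at 37 °C, 5% CO2. Luminescence then read after adding neolite reagent at room temperature.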

The target of a further test is BCL6 BTB domain (Homo sapiens (Human), UniProt P41182). Nature of the test: Surface plasmon resonance (SPR) assay. Format: binding. The following applies: BCL6 BTB domain captured on SA chip, single cycle kinetics. (Surface plasmon resonance follows binding to a sensor surface in real time, without labels.)

For the compound `Cn1cnc2c(c(-c3cc(Cl)c(O)c(C(N)=O)c3)cn2CC(=O)NC2CCCCC2)c1=O` [Compound I-211], the IC50 in the test with Karpas422 cells was 10 µM. In test [1], the EC50 worked out at 10 µM. Moreover, the Kd at BCL6 BTB domain came out at 1.21 µM.

On to `Cn1cnc2c(c(-c3cc(Cl)c(O)c(C(N)=O)c3)cn2CC(=O)Nc2cc(N3CCOCC3(C)C)ncc2Cl)c1=O` [Compound I-212], for which the half-inhibitory concentration (IC50) with Karpas422 cells worked out at 0.457 µM. In addition, in test [1], the EC50 was 0.494 µM. This compound also displayed a Kd on BCL6 BTB domain of 0.0284 µM.

For the compound `Cn1cnc2c(c(-c3cc(Cl)c(O)c(C(N)=O)c3)cn2CC(=O)Nc2cc3c(cc2Cl)OCCN3CCN2CCOCC2)c1=O` [Compound I-213], the IC50 in the test on Karpas422 cells worked out at 0.878 µM. Moreover, the EC50 in test [1] worked out at 0.842 µM. On BCL6 BTB domain, this compound showed a Kd of 0.0186 µM.

In the case of `Cn1cnc2c(c(-c3cc(Cl)c(O)c(C(N)=O)c3)cn2CC(=O)Nc2cc3c(cc2Cl)OCC(=O)N3CCN2CCOCC2)c1=O` [Compound I-214], the IC50 with Karpas422 cells is 0.855 µM. For the same compound, in test [1], the EC50 was determined as 1.35 µM. In addition, the Kd on BCL6 BTB domain stood at 0.0312 µM.

For `CN(C)CC1CN(c2cc(NC(=O)Cn3cc(-c4cc(Cl)c(O)c(C(N)=O)c4)c4c(=O)n(C)cnc43)c(Cl)cn2)CCO1` (stereo not drawn) [Compound I-215], in the test with Karpas422 cells, the IC50 is 0.662 µM. The EC50 in test [1] worked out at 0.806 µM. In addition, at BCL6 BTB domain, the affinity, expressed as Kd, was 0.00981 µM.

As for `C[C@H]1COCCN1c1cc(NC(=O)Cn2cc(-c3cc(Cl)c(O)c(C(N)=O)c3)c3c(=O)n(C)c(C(F)(F)F)nc32)c(Cl)cn1` [Compound I-216], the IC50 in the test with Karpas422 cells is 0.831 µM. In addition, the EC50 in test [1] came out at 0.97 µM. On BCL6 BTB domain, this compound gave a Kd of 0.0764 µM.

With `Cn1cnc2c(c(-c3cc(F)c(O)c(C(N)=O)c3)cn2CC(=O)Nc2cc(N3CCOCC3)ncc2F)c1=O` [Compound I-217], in the test on Karpas422 cells, the IC50 stood at 0.382 µM. Besides, the EC50 in test [1] came to 0.727 µM. The compound further showed a Kd at BCL6 BTB domain of 0.0266 µM.

`C[C@@H]1CN(c2cc(NC(=O)Cn3cc(-c4cc(F)c(O)c(C(N)=O)c4)c4c(=O)n(C)cnc43)c(Cl)cn2)C[C@H](C)N1` [Compound I-218]: in the test with Karpas422 cells, the half-inhibitory concentration (IC50) worked out at 0.563 µM. In addition, the EC50 in test [1] came to 0.975 µM. The same compound displayed a Kd on BCL6 BTB domain of 0.0164 µM.

For the compound `Cn1cnc2c(c(-c3cc(F)c(O)c(C(N)=O)c3)cn2CC(=O)Nc2cc(N3CCOCC3)c(F)cc2Cl)c1=O` [Compound I-219], the IC50 in the test on Karpas422 cells amounted to 0.216 µM. Further, the EC50 in test [1] was determined as 0.535 µM. This compound also displayed a Kd at BCL6 BTB domain of 0.0709 µM.

Consider `CN1C(C)(C)CN(c2cc(NC(=O)Cn3cc(-c4cc(F)c(O)c(C(N)=O)c4)c4c(=O)n(C)cnc43)c(Cl)cn2)CC1(C)C` [Compound I-221], for which the IC50 in the test on Karpas422 cells is 0.11 µM. The EC50 in test [1] came to 0.14 µM. The Kd on BCL6 BTB domain came to 0.0141 µM.

For the compound `Cn1cnc2c(c(-c3cc(C(N)=O)c(O)cc3F)cn2CC(=O)Nc2cc(N3CCOCC3)ncc2F)c1=O` [Compound I-222], the IC50 in the test with Karpas422 cells worked out at 0.371 µM. Moreover, the EC50 in test [1] turned out to be 1.33 µM. In addition, the Kd on BCL6 BTB domain turned out to be 0.228 µM.

As to `Cn1cnc2c(c(-c3cc(C(N)=O)c(O)c(F)c3F)cn2CC(=O)Nc2cc(N3CC4CCOC4C3)ncc2Cl)c1=O` (stereo not drawn) [Compound I-224], in the test on Karpas422 cells, the IC50 worked out at 0.651 µM. The EC50 in test [1] came out at 2.02 µM. Binding on BCL6 BTB domain was characterised by a dissociation constant (Kd) of 0.0224 µM.

For `C[C@@H]1CN(c2cc(NC(=O)Cn3cc(-c4cc(C(N)=O)c(O)c(F)c4F)c4c(=O)n(C)cnc43)c(Cl)cn2)C[C@H](C)N1` [Compound I-225], the IC50 with Karpas422 cells came to 4.34 µM. Further, the EC50 in test [1] stood at 20.5 µM. The compound further gave a Kd at BCL6 BTB domain of 0.115 µM.

Regarding `Cc1nc2cc(Cl)c(NC(=O)Cn3cc(-c4cc(C(N)=O)c(O)c(F)c4F)c4c(=O)n(C)cnc43)cc2o1` [Compound I-226], the IC50 in the test on Karpas422 cells came out at 1.89 µM. Moreover, the EC50 in test [1] was found to be 5.12 µM. The Kd on BCL6 BTB domain turned out to be 0.468 µM.

In the case of `Cn1cnc2c(c(-c3cc(C(N)=O)c(O)c(F)c3F)cn2CC(=O)Nc2cc(N3CCOCC3)c(F)cc2Cl)c1=O` [Compound I-227], the IC50 in the test with Karpas422 cells amounted to 2.16 µM. Further, in test [1], the EC50 came out at 2.5 µM. The same compound gave a Kd on BCL6 BTB domain of 0.42 µM.

Consider `C[C@@H]1CN(C)C[C@H](C)N1c1cc(NC(=O)Cn2cc(-c3cc(C(N)=O)c(O)c(F)c3F)c3c(=O)n(C)cnc32)c(Cl)c(F)n1` [Compound I-229], for which the IC50 in the test with Karpas422 cells was found to be 0.0784 µM. Besides, in test [1], the EC50 was determined as 0.102 µM. On BCL6 BTB domain, the Kd was determined as 0.0163 µM.
